# Organism: Rattus norvegicus
# Assay: DrugMatrix - Regimen: Daily Repeat
# Format: toxicity, organism-based, Sprague-Dawley
# Parameters: regimen Daily Repeat, gender Male, age 6-8 weeks
# Conditions: in vivo, sc, route mini-PUMP - SUBCUTANEOUS, vehicle 100 % SALINE; for TOTAL PROTEIN / ALANINE AMINOTRANSFERASE / ALBUMIN / ALKALINE PHOSPHATASE / ASPARTATE AMINOTRANSFERASE / BLOOD UREA NITROGEN / CARBON DIOXIDE / CHLORIDE / CHOLESTEROL / LACTATE DEHYDROGENASE / LIPASE / PHOSPHORUS / POTASSIUM / SODIUM / CREATININE / TOTAL BILIRUBIN: tissue Plasma; for ABSOLUTE BASOPHIL / ABSOLUTE EOSINOPHIL / ABSOLUTE LYMPHOCYTE / ABSOLUTE MONOCYTE / ABSOLUTE SEGMENTED NEUTROPHIL / BASOPHIL / EOSINOPHIL / ERYTHROCYTE COUNT / HEMOGLOBIN / LEUKOCYTE COUNT / LYMPHOCYTE / MEAN CORPUSCULAR HEMOGLOBIN / MEAN CORPUSCULAR HEMOGLOBIN CONCENTRATION / MEAN CORPUSCULAR VOLUME / NUCLEATED RED BLOOD CELLS / PLATELET COUNT: tissue Blood
# [1] = 0 mg/kg, 120 h, dose level Control, time 5 day
# [2] = 0 mg/kg, […], dose level Control, time 14 day
# [3] = […], dose 0.77 mg/Kg, dose level High, time 14 day
structure (smiles),measurement,setting,value
CNC[C@H](O)c1ccc(O)c(O)c1 [EPINEPHRINE],TOTAL PROTEIN,"0 mg/kg, 72 h, dose level Control, time 3 day",6.05 G/DL
same,ABSOLUTE BASOPHIL,[1],0 CELLS/uL
same,ABSOLUTE EOSINOPHIL,[1],0 CELLS/uL
same,ABSOLUTE LYMPHOCYTE,[1],14257.33 CELLS/uL
same,ABSOLUTE MONOCYTE,[1],326 CELLS/uL
same,ABSOLUTE SEGMENTED NEUTROPHIL,[1],3216.67 CELLS/uL
same,BASOPHIL,[1],0%
same,EOSINOPHIL,[1],0%
same,ERYTHROCYTE COUNT,[1],6.11 x10E6/uL
same,HEMOGLOBIN,[1],13.18 G/DL
same,LEUKOCYTE COUNT,[1],17.8 x10E3/uL
same,LYMPHOCYTE,[1],80.5%
same,MEAN CORPUSCULAR HEMOGLOBIN,[1],21.62 pg
same,MEAN CORPUSCULAR HEMOGLOBIN CONCENTRATION,[1],36.42 G/DL
same,MEAN CORPUSCULAR VOLUME,[1],59.37 fL
same,NUCLEATED RED BLOOD CELLS,[1],0 /100WBC
same,PLATELET COUNT,[1],1311 x10E3/uL
same,ALANINE AMINOTRANSFERASE,[1],47 u/L
same,ALBUMIN,[1],3.83 G/DL
same,ALKALINE PHOSPHATASE,[1],260.33 u/L
same,ASPARTATE AMINOTRANSFERASE,[1],76.17 u/L
same,BLOOD UREA NITROGEN,[1],14.67 mg/dL
same,CARBON DIOXIDE,[1],31.33 mmol/L
same,CHLORIDE,[1],101.17 MEQ/L
same,CHOLESTEROL,[1],75 mg/dL
same,LACTATE DEHYDROGENASE,[1],147.33 u/L
same,LIPASE,[1],9.33 u/L
same,PHOSPHORUS,[1],10.97 mg/dL
same,POTASSIUM,[1],6 MEQ/L
same,SODIUM,[1],145.52 MEQ/L
same,TOTAL PROTEIN,[1],5.83 G/DL
same,ABSOLUTE BASOPHIL,[2],0 CELLS/uL
same,ABSOLUTE EOSINOPHIL,[2],64.5 CELLS/uL
same,ABSOLUTE LYMPHOCYTE,[2],12507.83 CELLS/uL
same,ABSOLUTE MONOCYTE,[2],380.33 CELLS/uL
same,ABSOLUTE SEGMENTED NEUTROPHIL,[2],2414 CELLS/uL
same,BASOPHIL,[2],0%
same,EOSINOPHIL,[2],0.5%
same,ERYTHROCYTE COUNT,[2],6.1 x10E6/uL
same,HEMOGLOBIN,[2],12.88 G/DL
same,LEUKOCYTE COUNT,[2],15.37 x10E3/uL
same,LYMPHOCYTE,[2],80.83%
same,MEAN CORPUSCULAR HEMOGLOBIN,[2],21.18 pg
same,MEAN CORPUSCULAR HEMOGLOBIN CONCENTRATION,[2],36.43 G/DL
same,MEAN CORPUSCULAR VOLUME,[2],58.17 fL
same,NUCLEATED RED BLOOD CELLS,[2],0.17 /100WBC
same,PLATELET COUNT,[2],1016 x10E3/uL
same,ALANINE AMINOTRANSFERASE,[2],53.33 u/L
same,ALBUMIN,[2],3.93 G/DL
same,ALKALINE PHOSPHATASE,[2],319.83 u/L
same,ASPARTATE AMINOTRANSFERASE,[2],84 u/L
same,BLOOD UREA NITROGEN,[2],15.5 mg/dL
same,CARBON DIOXIDE,[2],34 mmol/L
same,CHLORIDE,[2],101.83 MEQ/L
same,CHOLESTEROL,[2],57 mg/dL
same,CREATININE,[2],0.21 mg/dL
same,LACTATE DEHYDROGENASE,[2],104.67 u/L
same,LIPASE,[2],9.17 u/L
same,PHOSPHORUS,[2],11.12 mg/dL
same,POTASSIUM,[2],5.81 MEQ/L
same,SODIUM,[2],144.85 MEQ/L
same,TOTAL BILIRUBIN,[2],0.18 mg/dL
same,TOTAL PROTEIN,[2],5.92 G/DL
same,ABSOLUTE BASOPHIL,[3],0 CELLS/uL
same,ABSOLUTE EOSINOPHIL,[3],121.6 CELLS/uL
same,ABSOLUTE LYMPHOCYTE,[3],13213.6 CELLS/uL
same,ABSOLUTE MONOCYTE,[3],369.4 CELLS/uL
same,ABSOLUTE SEGMENTED NEUTROPHIL,[3],2115.4 CELLS/uL
same,BASOPHIL,[3],0%
same,EOSINOPHIL,[3],0.8%
same,ERYTHROCYTE COUNT,[3],6.78 x10E6/uL
same,HEMOGLOBIN,[3],14.32 G/DL
same,LEUKOCYTE COUNT,[3],15.82 x10E3/uL
same,LYMPHOCYTE,[3],84.2%
same,MEAN CORPUSCULAR HEMOGLOBIN,[3],21.14 pg
same,MEAN CORPUSCULAR HEMOGLOBIN CONCENTRATION,[3],36.3 G/DL
same,MEAN CORPUSCULAR VOLUME,[3],58.22 fL
same,NUCLEATED RED BLOOD CELLS,[3],0 /100WBC
same,PLATELET COUNT,[3],976 x10E3/uL
same,ALANINE AMINOTRANSFERASE,[3],53.2 u/L
same,ALBUMIN,[3],4.38 G/DL
same,ALKALINE PHOSPHATASE,[3],383.4 u/L
same,ASPARTATE AMINOTRANSFERASE,[3],82 u/L
same,BLOOD UREA NITROGEN,[3],15.6 mg/dL
same,CARBON DIOXIDE,[3],34.2 mmol/L
same,CHLORIDE,[3],99.8 MEQ/L
same,CHOLESTEROL,[3],80.2 mg/dL
same,CREATININE,[3],0.21 mg/dL
same,LACTATE DEHYDROGENASE,[3],111.2 u/L
same,LIPASE,[3],9 u/L
same,PHOSPHORUS,[3],11.84 mg/dL
same,POTASSIUM,[3],6.19 MEQ/L
same,SODIUM,[3],147.16 MEQ/L
same,TOTAL BILIRUBIN,[3],0.14 mg/dL
same,TOTAL PROTEIN,[3],6.7 G/DL

# — ChEMBL document CHEMBL3885881, “DrugMatrix”
